Experimental data taken from ChEMBL document CHEMBL1201862, “PubChem BioAssay data set” (2004).
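A five-concentration, 48-hour dose response in 96-well plates underlies each endpoint, interpolated linearly between surrounding concentrations. At the GI50, growth is halved.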 Activity calls are given as the source filed them. Rule as the data show it: active = GI50 up to about 1.1 µM and inactive = higher.

Assays:
Experiment in all cases: growth of human tumour cells (NCI), 48 h
HCT-116 = test system: HCT-116
SW-620 = test system: SW-620
EKVX = test system: EKVX
SK-MEL-28 = test system: SK-MEL-28
HCC 2998 = test system: HCC 2998
SNB-75 = test system: SNB-75
CCRF-CEM = test system: CCRF-CEM
Malme-3M = test system: Malme-3M
A549 = test system: A549
RXF 393 = test system: RXF 393
HL-60 = test system: HL-60
SF-295 = test system: SF-295
IGROV-1 = test system: IGROV-1
COLO 205 = test system: COLO 205
OVCAR-5 = test system: OVCAR-5
ACHN = test system: ACHN

Measured: GI50

C[C@]12CCC(=O)CC1CCCC2=O (stereo partly specified)
inactive: HCT-116 > 100 µM | SW-620 > 100 µM | EKVX > 100 µM | SK-MEL-28 > 100 µM | HCC 2998 > 100 µM | SNB-75 > 100 µM | CCRF-CEM > 100 µM | Malme-3M > 100 µM | A549 > 100 µM | RXF 393 > 100 µM | HL-60 > 100 µM | SF-295 > 100 µM | IGROV-1 > 100 µM | COLO 205 > 100 µM

CC(=O)OCCOCNC(=S)N/N=C(\C)c1cnc2ccccc2n1
inactive: HCT-116 25.4 µM | SW-620 28.2 µM | EKVX 8.53 µM | SK-MEL-28 43.6 µM | HCC 2998 32.7 µM | OVCAR-5 7.91 µM | SNB-75 52.7 µM | CCRF-CEM 7.46 µM | Malme-3M 40.6 µM | A549 26.6 µM | RXF 393 33 µM | HL-60 15.9 µM | SF-295 57.9 µM | IGROV-1 42 µM | ACHN 11.5 µM | COLO 205 20.1 µM

CC1S(=O)(=O)OCCOS1(=O)=O
inactive: HCT-116 > 95.7 µM | SW-620 > 100 µM | EKVX > 100 µM | SK-MEL-28 > 100 µM | HCC 2998 > 100 µM | OVCAR-5 > 100 µM | SNB-75 67.9 µM | CCRF-CEM 50 µM | Malme-3M > 100 µM | A549 > 95.5 µM | RXF 393 > 73.5 µM | HL-60 29.7 µM | SF-295 50.4 µM | IGROV-1 > 100 µM | ACHN 46.5 µM | COLO 205 > 100 µM

O=C1c2ccccc2CCCCCCCCCCC12OCCCO2
inactive: HCT-116 16 µM | SK-MEL-28 55.8 µM | HCC 2998 25.4 µM | OVCAR-5 26.7 µM | SNB-75 25.6 µM | CCRF-CEM 25.3 µM | Malme-3M 30.9 µM | A549 28.8 µM | RXF 393 10.6 µM | HL-60 16 µM | SF-295 34.7 µM | IGROV-1 41.4 µM | ACHN 52.4 µM | COLO 205 19.2 µM

CP(=O)(CCSc1ccccc1)c1ccccc1 (stereo unspecified)
inactive: HCT-116 > 100 µM | SW-620 > 100 µM | EKVX > 100 µM | SK-MEL-28 > 100 µM | HCC 2998 > 100 µM | SNB-75 > 100 µM | CCRF-CEM > 100 µM | Malme-3M > 100 µM | A549 > 100 µM | RXF 393 > 100 µM | HL-60 35.6 µM | SF-295 > 100 µM | IGROV-1 > 100 µM | ACHN > 100 µM | COLO 205 > 100 µM

CCOC(=O)C1=C(NC)OCC1=O
inactive: HCT-116 > 100 µM | SW-620 > 100 µM | EKVX > 100 µM | SK-MEL-28 > 100 µM | HCC 2998 > 100 µM | OVCAR-5 > 100 µM | SNB-75 > 100 µM | CCRF-CEM > 100 µM | Malme-3M > 100 µM | A549 > 100 µM | RXF 393 > 100 µM | HL-60 > 100 µM | SF-295 > 100 µM | IGROV-1 > 100 µM | ACHN > 100 µM | COLO 205 > 100 µM

FC(F)(F)c1nc(-c2ccccc2)oc1Sc1oc(-c2ccccc2)nc1C(F)(F)F
inactive: HCT-116 > 100 µM | SW-620 > 100 µM | EKVX > 100 µM | HCC 2998 > 100 µM | OVCAR-5 > 100 µM | SNB-75 29.7 µM | CCRF-CEM > 100 µM | Malme-3M > 100 µM | A549 > 100 µM | RXF 393 24.7 µM | HL-60 > 100 µM | SF-295 34.4 µM | IGROV-1 > 100 µM | ACHN 28.8 µM | COLO 205 > 100 µM

CC#N.O[C@@H]1CCCC[C@@H]1O.O[C@@H]1CCCC[C@@H]1O.[TeH2]
inactive: HCT-116 15.4 µM | SW-620 18.6 µM | EKVX > 100 µM | SK-MEL-28 72.3 µM | HCC 2998 > 100 µM | OVCAR-5 16.3 µM | SNB-75 > 100 µM | CCRF-CEM 11.6 µM | Malme-3M > 100 µM | A549 45.8 µM | RXF 393 72.3 µM | HL-60 15.4 µM | SF-295 17.3 µM | IGROV-1 26.9 µM | ACHN 33.2 µM | COLO 205 84.3 µM

CN1C/C(=C\c2ccc(C(=O)O)cc2)C(=O)/C(=C/c2ccc(C(=O)O)cc2)C1
inactive: HCT-116 > 100 µM | SW-620 > 100 µM | EKVX > 100 µM | SK-MEL-28 > 100 µM | HCC 2998 > 100 µM | OVCAR-5 > 100 µM | SNB-75 > 100 µM | CCRF-CEM > 100 µM | Malme-3M > 100 µM | A549 > 100 µM | RXF 393 > 100 µM | HL-60 > 100 µM | SF-295 > 100 µM | IGROV-1 > 100 µM | ACHN > 100 µM | COLO 205 > 100 µM

O=c1cccccc1NCCCCCCNc1cccccc1=O
inactive: HCT-116 > 100 µM | SW-620 > 100 µM | EKVX > 100 µM | SK-MEL-28 > 100 µM | HCC 2998 > 100 µM | OVCAR-5 > 100 µM | SNB-75 57.7 µM | CCRF-CEM > 100 µM | Malme-3M > 100 µM | A549 > 100 µM | HL-60 > 100 µM | SF-295 > 100 µM | IGROV-1 > 100 µM | ACHN > 100 µM | COLO 205 > 100 µM

COc1ccc(C=O)c(NC(=O)C(C)C)c1
inactive: HCT-116 15.8 µM | SW-620 > 10 µM | EKVX 31.6 µM | SK-MEL-28 69.2 µM | OVCAR-5 > 100 µM | SNB-75 30.6 µM | CCRF-CEM > 10 µM | Malme-3M 27.4 µM | A549 27.2 µM | RXF 393 12.3 µM | SF-295 32.7 µM | IGROV-1 > 100 µM | ACHN 29.8 µM | COLO 205 18.2 µM

CCCCCC(=O)c1ccc2[nH]c3c(C)cc([N+](=O)[O-])c(C)c3c2c1
inactive: HCT-116 90.8 µM | SW-620 80.2 µM | EKVX > 100 µM | SK-MEL-28 > 100 µM | HCC 2998 > 100 µM | OVCAR-5 > 100 µM | SNB-75 > 100 µM | CCRF-CEM 91.2 µM | Malme-3M > 100 µM | A549 49.4 µM | HL-60 98.2 µM | SF-295 94.6 µM | ACHN > 100 µM | COLO 205 59.6 µM

CN(C)CC1(Cc2ccccc2)CC/C(=C\c2ccccc2)C1=O (stereo unspecified)
inactive: HCT-116 29.1 µM | SW-620 20.8 µM | SK-MEL-28 > 100 µM | HCC 2998 19.9 µM | OVCAR-5 40.6 µM | SNB-75 57.3 µM | CCRF-CEM 27 µM | Malme-3M 44 µM | A549 96.4 µM | RXF 393 35.6 µM | HL-60 20.4 µM | SF-295 62.2 µM | IGROV-1 47.8 µM | ACHN 50.7 µM | COLO 205 32.9 µM

O=c1cc2ccccc2nn1Cc1ccccc1Cl
inactive: HCT-116 > 100 µM | SW-620 > 100 µM | EKVX > 100 µM | SK-MEL-28 > 100 µM | HCC 2998 > 100 µM | OVCAR-5 > 100 µM | SNB-75 25.3 µM | CCRF-CEM > 100 µM | Malme-3M > 100 µM | A549 > 100 µM | SF-295 > 100 µM | IGROV-1 > 100 µM | ACHN > 100 µM | COLO 205 > 100 µM

O=C(CC(=O)c1ccccc1)CC(O)(c1ccccc1)c1ccccc1
inactive: HCT-116 4.59 µM | SW-620 4.02 µM | EKVX 6.1 µM | SK-MEL-28 13.1 µM | HCC 2998 10.6 µM | OVCAR-5 11.3 µM | SNB-75 9.55 µM | CCRF-CEM 3.37 µM | Malme-3M 11 µM | HL-60 2.01 µM | SF-295 4.42 µM | ACHN 6.27 µM | COLO 205 10.5 µM

COC(=O)[C@H](Cc1ccccc1)NC(=O)/C(=C/C(C)C)NC(=O)[C@H](CCSC)NC=O
inactive: HCT-116 > 100 µM | SW-620 > 100 µM | EKVX > 100 µM | SK-MEL-28 > 100 µM | HCC 2998 > 100 µM | SNB-75 > 100 µM | CCRF-CEM > 100 µM | A549 > 100 µM | RXF 393 > 100 µM | HL-60 > 100 µM | SF-295 > 100 µM | IGROV-1 > 100 µM | ACHN > 100 µM | COLO 205 > 100 µM

COC1(Cc2ccccc2)C(=O)c2ccccc2N1C(C)=O (stereo unspecified)
inactive: HCT-116 > 100 µM | SW-620 > 100 µM | EKVX > 100 µM | SK-MEL-28 > 100 µM | HCC 2998 > 100 µM | SNB-75 > 100 µM | CCRF-CEM > 100 µM | A549 > 100 µM | RXF 393 > 100 µM | HL-60 > 100 µM | SF-295 > 100 µM | IGROV-1 > 100 µM | ACHN > 100 µM | COLO 205 > 100 µM

CCOC(=O)/C=C/n1c2ccccc2c(=O)c2cc(OC)ccc21
inactive: HCT-116 90.6 µM | EKVX > 100 µM | SK-MEL-28 > 100 µM | HCC 2998 > 100 µM | OVCAR-5 > 100 µM | SNB-75 51.5 µM | CCRF-CEM 50.8 µM | Malme-3M > 100 µM | A549 > 100 µM | RXF 393 > 100 µM | HL-60 > 100 µM | SF-295 > 100 µM | IGROV-1 > 100 µM | ACHN > 100 µM | COLO 205 > 100 µM
